# Data published in patent US10653780B2, “Amino lipids and methods for the delivery of nucleic acids” (ARBUTUS BIOPHARMA CORPORATION, priority 2008, dated 2020).
# “And” between values parts separate entries of the source, which are not always exact repeats. Identical values can stand only once. Like-named read-outs stand apart in the source and are kept apart here.
# Experiments:
# [1] = In situ determination of apparent pKa using TNS fluorescence titration
# Excerpt: In situ pKa measurements were made using the pH sensitive fluorescent probe TNS, using a modification of the approach previously published in Bailey, A. L. and Cullis, P. R., Biochemistry 33:12573-12580 (1994).
# Titrations of surface charge as a function of pH can then be used to determine the apparent pKa (hereafter referred to as pKa) of constituent lipids (Cullis, P. R., et al., Chem Phys Lipids 40:127-144 (1986)).
# [2] = Tolerability of DLin-K-DMA-containing LN-siRNA systems in mice at extreme doses
# Procedure: The tolerability of empty DLin-K-C2-DMA lipid particles (DLin-K-C2-DMA/DSPC/Chol/PEG-C-DOMG (40/10/40/10)) was evaluated by monitoring weight change, cageside observations, clinical chemistry and, in some instances, hematology in femal Sprague Dawley rats and female C57BL/6 mice. Animal weights were recorded prior to treatment and at 24 hours after intravenous treatment with various dosages. Data was recorded as % Change in Body Weight. In addition to body weight measurements, clinical chemistry panel, including liver function markers, was obtained at each dose level at 24 hours post-injection using an aliquot of the serum collected for FVII analysis. […] In some instances, additional animals were included in the treatment group to allow collection of whole blood for hematology analysis.
# The toxicity criteria measured were % change in body weight and serum levels of the liver enzyme markers, ALT and AST.
# Factor VII (FVII) = settings: for FVII ED50: Table 11
# Excerpt: It is well established that in vivo RNAi silencing of specific hepatocyte proteins can be achieved following intravenous (i.v.) administration of siRNA's encapsulated in, or associated with, select nanoparticles designed for intracellular delivery. […] In this Example, rational design in combination with in vivo screening were applied to systematically modify the structure of DLinDMA and identify molecular features that enhance or reduce cationic lipid potency. More than 30 lipids were synthesized and incorporated into nucleic acid-lipid particles, i.e., lipid nanoparticles (LN) encapsulating an siRNA (LN-siRNA) targeting Factor VII (FVII), a blood clotting component synthesized and secreted by hepatocytes that is readily measured in serum. LN-siRNA systems were prepared using the same process, lipid molar ratios and particle size to minimize effects on activity resulting from formulation characteristics other than the cationic lipid. Each formulation was administered as a single bolus injection over a range of doses enabling an estimate of the siRNA dose required to reduce FVII serum protein concentrations by 50% after 24 h (ED50).
# FVII activity was evaluated in FVII siRNA-treated animals at 24 hours after intravenous (bolus) injection in C57BL/6 mice or 48 hours after intravenous (bolus) injection in SD rats. Six to 8 week old, female C57Bl/6 mice were obtained from Charles River Laboratories and acclimated for one week prior to use in studies. Animals were held in a pathogen-free environment and all procedures involving animals were performed in accordance with the guidelines established by the Canadian Council on Animal Care.
# LN-siRNA systems containing Factor VII siRNA were diluted to the appropriate concentrations in sterile phosphate buffered saline immediately prior to use, and the formulations were administered intravenously via the lateral tail vein in a total volume of 10 ml/kg. After 24 h, animals were anaesthetised with Ketamine/Xylazine and blood was collected by cardiac puncture and processed to serum (Microtainer Serum Separator Tubes; Becton Dickinson, Franklin Lakes, N.J., USA). Serum was tested immediately or stored at −70° C. for later analysis for serum Factor VII levels.
# FVII was measured using a commercially available kit (Biophen FVII Kit™; Aniara Corp., Mason, Ohio), following the manufacturer's instructions at a microplate scale. FVII reduction was determined against untreated control animals, and the results were expressed as % Residual FVII. Five dose levels (0.1, 0.3, 0.5, 1.0, and 3.0 mg/kg) were typically used.
# Serum Factor VII levels were determined using the colorimetric Biophen VII assay kit (Anaira, USA). Briefly, serially diluted pooled control serum (200%-3.125%) and appropriately diluted plasma samples from treated animals were analyzed using the Biophen VII kit according to manufacturer's instructions in 96-well, flat bottom, non-binding polystyrene assay plates (Corning, Corning, N.Y.) and absorbance at 405 nm was measured. A calibration curve was generated using the serial diluted control serum and used to determine levels of Factor VII in serum from treated animals.
# Initial studies were performed in eight to 10 week old, female C57BL/6 mice in two stages. In the first stage, the activity associated with the benchmark lipid DLinDMA was compared to the activity associated with modified forms of DLinDMA.
# [3] = Bilayer-to-hexagonal HII transition temperature (TBH) in equimolar mixtures with DSPS; type: physicochemical; settings: equimolar with DSPS, pH 4.8; 31P NMR and DSC
# Excerpt: Both techniques gave similar results.
# [4] = siRNA 0-10 mg/kg, total lipid 0-164 mg/kg
# [5] = siRNA 46 mg/kg, total lipid 750 mg/kg
# [6] = siRNA 61 mg/kg, total lipid 1000 mg/kg
# [7] = siRNA 76 mg/kg, total lipid 1250 mg/kg
# [8] = siRNA 92 mg/kg, total lipid 1500 mg/kg
# [9] = Table 4, siRNA dose reducing serum FVII protein by 50% at 24 h, PFV LN-siRNA 40/10/40/10
# [10] = Table 6, siRNA dose reducing serum FVII protein by 50% at 24 h, PFV LN-siRNA 40/10/40/10
# [11] = Table 8, FVII ED50 of the LN-siRNA system
# [12] = siRNA dose reducing serum FVII protein by 50% at 24 h, PFV LN-siRNA 40/10/40/10
smiles,measurement,setting,value
"CCCCC/C=C\C/C=C\CCCCCCCCC1(CCCCCCCC/C=C\C/C=C\CCCCC)OCC(CN(C)C)O1 (racemic) [DLin-K-DMA, 2,2-Dilinoleyl-4-dimethylaminomethyl-[1,3]-dioxolane]",pKa,[1],5.6
same,siRNA dose up to which no changes in blood chemistry or body weight were observed,"[2]; compared to saline controls, mice",10 mg/kg
same,body weight lost,"[2]; maximum dose 92 mg siRNA/kg, 1500 mg total lipid/kg",6%
same,siRNA dose exceeded before severe (>10-fold) ALT/AST increases are observed,[2]; mice,exceeded 61 mg/kg
same,% Change Body Weight,[2]; [4],0%
same,ALT,[2]; [4],45 IU/L
same,AST,[2]; [4],90 IU/L
same,% Change Body Weight,[2]; [5],−5.0%
same,ALT,[2]; [5],174 IU/L
same,AST,[2]; [5],340 IU/L
same,increases in serum ALT and AST,[2]; [5],< 10 fold normal
same,% Change Body Weight,[2]; [6],−4.5%
same,ALT,[2]; [6],448 IU/L
same,AST,[2]; [6],816 IU/L
same,% Change Body Weight,[2]; [7],−5.5%
same,ALT,[2]; [7],1771 IU/L
same,AST,[2]; [7],4723 IU/L
same,% Change Body Weight,[2]; [8],−6.0%
same,ALT,[2]; [8],4723 IU/L
same,AST,[2]; [8],2094 IU/L
same,fold greater than the ED50 dose,[2]; siRNA dose of 10 mg/kg without changes,> 30 fold
same,fold more than the ED50,"[2]; siRNA dose of 46 mg/kg, first significant toxicity signs",150 fold
same,ED50,Factor VII (FVII); [9],~0.4 mg/kg
same,ED50,Factor VII (FVII); [10],~0.4 mg/kg
same,ED50,"Factor VII (FVII); Table 7, siRNA dose reducing serum FVII protein by 50% at 24 h, PFV LN-siRNA 40/10/40/10",~1 mg/kg
same,ED50,Factor VII (FVII); [11],0.3 mg/kg
same,FVII ED50,Factor VII (FVII),~0.4 mg/kg
same,FVII ED50,Factor VII (FVII); listed as DLin-K-DMA (racemic mixture),~0.3 mg/kg
same,fold more potent than the DLinDMA benchmark,"Factor VII (FVII); reducing serum FVII protein, mouse, head-to-head",~2.5 fold
same,ED50,Factor VII (FVII); [12],~0.4 mg/kg
same,ED50,"Factor VII (FVII); siRNA dose reducing serum FVII protein by 50% at 24 h, PFV LN-siRNA 40/10/40/10, listed as DLin-K-DMA racemic mixture",~0.3 mg/kg
same,HII transition temperature,[3],19 °C
"CCCCC/C=C\C/C=C\CCCCCCCCOCC(CN(C)C)OCCCCCCCC/C=C\C/C=C\CCCCC (stereo not shown) [DLinDMA, 1,2-Dilinoleyloxy-3-dimethylaminopropane, reference compound]",pKa,[1],6.4
same,molecules charged,[1]; at pH 7.4,5-10%
same,pKa,[1]; nucleic acid-lipid particles containing the cationic lipid,6.4
same,ED50,"Factor VII (FVII); Table 3, siRNA dose reducing serum FVII protein by 50% at 24 h, single i.v. bolus, PFV LN-siRNA 40/10/40/10",~1 mg/kg
same,ED50,Factor VII (FVII); [9],~1 mg/kg
same,ED50,"Factor VII (FVII); Table 5, siRNA dose reducing serum FVII protein by 50% at 24 h, PFV LN-siRNA 40/10/40/10",~1 mg/kg
same,ED50,Factor VII (FVII); [11],1.0 mg/kg
same,FVII ED50,Factor VII (FVII),~1.0 mg/kg
same,ED50,Factor VII (FVII); [12],~1.0 mg/kg and 1 mg/kg
same,HII transition temperature,[3],27 °C
"CCCCC/C=C\C/C=C\CCCCCCCCC1(CCCCCCCC/C=C\C/C=C\CCCCC)OCC(CCCCN(C)C)O1 (stereo not shown) [DLin-K-C4-DMA, 2,2-Dilinoleyl-4-(4-dimethylaminobutyl)-[1,3]-dioxolane]",pKa,[1],6.8
same,ED50,Factor VII (FVII); [10],>3 mg/kg
same,FVII ED50,Factor VII (FVII),>3.0 mg/kg
same,fold less active in vivo than DLin-K-C3-DMA,"Factor VII (FVII); mouse, in vivo",more than 5 fold
same,ED50,Factor VII (FVII); [12],> 3 mg/kg
same,HII transition temperature,[3],18 °C
"CCCCC/C=C\C/C=C\CCCCCCCCC1(CCCCCCCC/C=C\C/C=C\CCCCC)OCC(CCCN(C)C)O1 (stereo not shown) [DLin-K-C3-DMA, 2,2-Dilinoleyl-4-(3-dimethylaminopropyl)-[1,3]-dioxolane]",pKa,[1],6.8
same,ED50,Factor VII (FVII); [10],~0.6 mg/kg
same,FVII ED50,Factor VII (FVII),~0.6 mg/kg
same,ED50,Factor VII (FVII); [12],~0.6 mg/kg
same,HII transition temperature,[3],18 °C
"CCCCC/C=C\C/C=C\CCCCCCCCC1(CCCCCCCC/C=C\C/C=C\CCCCC)OCC(CN2CCN(C)CC2)O1 (stereo not shown) [DLin-K-MPZ, 2,2-Dilinoleyl-4-N-methylpepiazino-[1,3]-dioxolane]",pKa,[1],6.2
same,ED50,Factor VII (FVII); [10],~1.5 mg/kg
same,FVII ED50,Factor VII (FVII),~1.5 mg/kg
same,fold less active than DLin-K-DMA,Factor VII (FVII); mouse FVII model,approximately 5 fold
same,ED50,Factor VII (FVII); [12],~1.5 mg/kg
